Experiments:
[1] = system: TNF-α production in BALB/3T3 cells stimulated by okadaic acid; assay: Inhibition of TNF-α production (in vitro) in BALB/3T3 cells stimulated by okadaic acid, ELISA; assay type: cell-based; conditions: for TNF-α production relative to the TNF-α production of the control: okadaic acid 0.2 μM, 24 hours, control = 100%; for TNF-α production inhibitory effect, overall assessment (in words): BALB/3T3 cells, okadaic acid stimulation
Procedure: In response to stimulation by okadaic acid (9,10-deepithio-9,10-didehydroacanthifolicin), BALB/3T3 cells produce TNF-α. The compounds of the present invention were investigated in terms of inhibitory effect on TNF-α production.
An MEM medium (product of Nissui) containing 10% fetal calf serum (product of Biocell Laboratory) was injected into 12-well multiplates (product of Corning), and BALB/3T3 cells were disseminated at 2×10^5 cells/well. The cells were cultured in a carbon dioxide gas incubator (5% Co2, humidified, 37° C.). Subsequently, KAVA-1, KAVA-2, KAVA-3, KAVA-4, or KAVA-5 was added to the wells at a concentration shown in FIG. 1, and the cells were cultured for one hour. No KAVA compound was added to the control wells. After completion of culturing, okadaic acid (carcinogenisis promoter isolated from Halichondria okadai) was added to each well at a final concentration of 0.2 μM, and culturing was performed for 24 hours. After completion of this culturing, the TNF-α concentration of the supernatant of each well was measured by means of ELISA system (product of Genzyme). In FIG. 1, the amount of TNF-α release corresponding to each compound concentration is represented by a percent concentration based on the amount of TNF-α release measured for the control (100%).

[2] = system: TNF-α production in serum induced by LPS; assay: TNF-α inhibitory effect (in vivo), LPS-induced serum TNF-α in mice, ELISA; design: species or system BALB/c mice; conditions: 40 mg/kg intraperitoneally, LPS 50 μg/mouse i.p. immediately after, serum 90 minutes after LPS
Procedure: Male BALB/cAnNCrj mice of 6 weeks age were purchased from Japan Charles River, and those having body weights of 30 g or lower were tested.
Seven mice groups, each group consisting of six mice, were provided; i.e., 1) a group to which distilled water for injection was administered (non-treated group) (N); 2) a group to which a 0.3% carboxymethyl cellulose-Na (0.3% CMC-Na) suspension was administered (control group) (C); and 3) five groups to which KAVA-1, KAVA-2, KAVA-3, KAVA-4, and KAVA-5, respectively, were administered (0.3% CMC-Na was used as a solvent).
Each of KAVA-1, KAVA-2, KAVA-3, KAVA-4, and KAVA-5 was prepared to a drug liquid of 40 mg/10 ml. The liquid was intraperitoneally administered at 10 ml/kg (dose: 40 mg/kg), and 0.3% CMC-Na was intraperitoneally administered at 10 ml/kg to each corresponding group. Lipo-polysaccharide (LPS) (product of SIGMA) was dissolved in physiological saline, and the solution was intraperitoneally administered to each mouse in an amount of 0.2 ml (50 μg/mouse) immediately after administration of the drug liquid.
After 90 minutes from administration of LPS, blood was collected from the eye socket, and the collected sample was allowed to stand for one hour at room temperature. Subsequently, the sample was centrifuged at 11,000 rpm for five minutes, and the serum was collected. […]

SMILES	TNF-α production relative to the TNF-α production of the control ([1]; 100 μM compound)	inhibition of serum TNF-α production compared with the control group (C) (in words) [2]	TNF-α production inhibitory effect, overall assessment (in words) [1]	TNF-α production relative to the TNF-α production of the control ([1]; 10 μM compound)	TNF-α production relative to the TNF-α production of the control ([1]; 50 μM compound)	inhibitory effect on TNF-α production (in words) ([1]; concentrations of 50 μM or less)
COC1=CC(=O)O[C@@H](/C=C/c2ccc3c(c2)OCO3)C1 [KAVA-1, (+)-Methysticin]	approximately 39%	almost comparable to that exerted by KAVA-2	–	–	–	–
COc1ccc(/C=C/c2cc(OC)cc(=O)o2)cc1 [KAVA-2, Yangonin]	approximately 22%	–	strong TNF-A production inhibitory effect	–	–	–
COc1cc(/C=C/c2ccccc2)oc(=O)c1 [KAVA-3, Desmethoxyyangonin]	approximately 0%	–	strong TNF-A production inhibitory effect	approximately 60%	approximately 22%	–
COC1=CC(=O)O[C@@H](CCc2ccccc2)C1 [KAVA-4, (+)-Dihydrokavain]	approximately 60%	significantly (p<0.5) inhibited TNF-α production	–	–	–	no inhibitory effect
COC1=CC(=O)O[C@@H](/C=C/c2ccccc2)C1 [KAVA-5, (+)-Kavain]	approximately 39%	–	–	–	–	–

Source: patent US7199152B2, “TNF-α production inhibitor comprising kavalactone as an active ingredient” (Meiji Dairies Corporation, priority 2000, dated 2007)
